Test results as given in the supplement of paper PMC10307832.

How the values were obtained:
Assay in all cases: relative viability (nuclei count vs DMSO), 5 days (fraction); higher = more cells survive
RO-3306 + Trametinib = compound: C1=CC2=C(C=CC(=C2)C=C3C(=O)NC(=NCC4=CC=CS4)S3)N=C1 [RO-3306] + CC(=O)Nc1cccc(-n2c(=O)n(C3CC3)c(=O)c3c(Nc4ccc(I)cc4F)n(C)c(=O)c(C)c32)c1 [Trametinib] (partner 0.02 µM)
Outline: (§1)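 Relative viability is defined as nuclei in treated wells over nuclei in vehicle wells. Duplicate plates were run and medians reported. Lung cancer cell lines in 1536-well plates were dosed by pin tool one day after seeding, with one drug or with a fixed anchor-drug dose plus five library-drug doses (not always all listed) in √10 steps, and nuclei were counted after 5 days.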

RO-3306 + Lapatinib = compound: C1=CC2=C(C=CC(=C2)C=C3C(=O)NC(=NCC4=CC=CS4)S3)N=C1 [RO-3306] + CS(=O)(=O)CCNCc1ccc(-c2ccc3ncnc(Nc4ccc(OCc5cccc(F)c5)c(Cl)c4)c3c2)o1 [Lapatinib] (partner 2 µM)
Outline: as §1

[1] = compound: O=S(=O)(c1ccccc1)N(CC(F)(F)F)c1ccc(C(O)(C(F)(F)F)C(F)(F)F)cc1 + CC(=O)Nc1cccc(-n2c(=O)n(C3CC3)c(=O)c3c(Nc4ccc(I)cc4F)n(C)c(=O)c(C)c32)c1 [Trametinib] (partner 0.02 µM)
Outline: as §1

[2] = compound: O=S(=O)(c1ccccc1)N(CC(F)(F)F)c1ccc(C(O)(C(F)(F)F)C(F)(F)F)cc1 + CC(=O)c1c(C)c2cnc(Nc3ccc(N4CCNCC4)cn3)nc2n(C2CCCC2)c1=O [Palbociclib] (partner 0.5 µM)
Outline: as §1

[3] = compound: O=S(=O)(c1ccccc1)N(CC(F)(F)F)c1ccc(C(O)(C(F)(F)F)C(F)(F)F)cc1 + Cc1nc(Nc2ncc(C(=O)Nc3c(C)cccc3Cl)s2)cc(N2CCN(CCO)CC2)n1 [Dasatinib] (partner 0.075 µM)
Outline: as §1

Cell Line	relative viability (RO-3306 + Trametinib; first compound 0.01 µM)	relative viability (RO-3306 + Trametinib; first compound 0.03162 µM)	relative viability (RO-3306 + Trametinib; first compound 0.1 µM)	relative viability (RO-3306 + Trametinib; first compound 0.3162 µM)	relative viability (RO-3306 + Trametinib; first compound 1 µM)	relative viability (RO-3306 + Lapatinib; first compound 0.01 µM)	relative viability (RO-3306 + Lapatinib; first compound 0.03162 µM)	relative viability (RO-3306 + Lapatinib; first compound 0.1 µM)	relative viability (RO-3306 + Lapatinib; first compound 0.3162 µM)	relative viability (RO-3306 + Lapatinib; first compound 1 µM)	relative viability ([1]; first compound 0.8 µM)	relative viability ([1]; first compound 2.53 µM)	relative viability ([1]; first compound 8 µM)	relative viability ([2]; first compound 0.8 µM)	relative viability ([2]; first compound 2.53 µM)	relative viability ([2]; first compound 8 µM)	relative viability ([3]; first compound 0.8 µM)	relative viability ([3]; first compound 2.53 µM)	relative viability ([3]; first compound 8 µM)
EMC-BAC-2	0.917	0.83	0.902	0.889	0.84	0.943	0.722	0.916	0.892	0.871	0.813	0.735	0.758	0.525	0.473	0.5	0.368	0.325	0.353
NCI-H2085	0.509	0.632	0.527	0.613	0.595	0.726	0.746	0.798	0.727	0.757	0.471	0.496	0.472	0.432	0.431	0.413	0.226	0.238	0.204
RERF-LC-KJ	0.914	0.907	0.862	0.881	0.935	0.861	0.842	0.828	0.864	0.702	0.812	0.721	0.663	1.1	0.909	0.905	0.753	0.652	0.641
NCI-H3122	0.241	0.223	0.26	0.237	0.227	1.1	1	1.02	0.997	0.827	0.166	0.143	0.221	0.143	0.148	0.202	0.725	0.525	0.817
CAL-12T	0.374	0.302	0.309	0.245	0.324	0.61			0.73	0.591	0.247	0.265	0.238	0.318	0.33	0.412	0.331	0.216	0.392
NCI-H2023	0.554	0.442	0.444	0.509	0.529	0.769	0.645	0.822	1.04	0.683	0.593	0.428	0.358	0.335	0.328	0.27	0.547	0.434	0.369
NCI-H1792	0.508		0.372	0.585	0.413	0.971		0.881	0.903	0.499	0.407	0.303	0.287	0.614	0.549	0.453	0.712	0.587	0.506
NCI-H1944	0.387	0.403	0.428	0.445	0.41	0.774	0.674	0.802	0.909	0.545	0.448	0.389	0.432	0.342	0.303	0.332	0.222	0.233	0.191
HCC-78	0.788	0.697	0.744	1.02	0.669	0.733	0.704	0.732	0.728	0.583	0.666	0.575	0.689	0.522	0.445	0.475	0.374	0.336	0.919
PC-3 [JPC-3]	0.715	0.697	0.704	0.694	0.65	0.469	0.445	0.389	0.439	0.435		0.678	0.678		0.381	0.532	1.03	1.05	0.972
NCI-H2126	0.555	0.488	0.577	0.584	0.476	0.644	0.719	0.742	0.76	0.747	0.645	0.593	0.628	0.344	0.345	0.355	0.753	0.634	0.535
LK-2	1.01	0.659	0.692	0.872	0.872	0.931	0.705	0.886	0.88	0.985	0.69	0.548	0.704	0.508	0.742	0.705	0.36	0.37	0.432
NCI-H460	0.162	0.115	0.139	0.223	0.128	1.64		0.958	1.18	1.25	0.198	0.109	0.147	0.16	0.133	0.113	0.654	0.459	0.574
HCC-827	0.544	0.476	0.516	0.571	0.462	0.226	0.21	0.17	0.214	0.17	0.527	0.503	0.244	0.513	0.418	0.388	0.37	0.36	0.316
NCI-H838	0.596	0.487	0.54	0.557	0.45	1.02	0.6	0.951	1.08	0.902	0.604	0.474	0.596	0.241	0.244	0.276	0.273	0.303	0.325
SW 1573	0.636	0.428	0.539	0.604	0.573	1.11	1.01	1.17	1.12	0.947	0.638	0.537	0.472	0.449	0.323	0.356	0.576	0.46	0.451
NCI-H2347	0.283	0.271	0.262	0.264	0.274	0.914	0.932	0.969	0.897	0.91	0.304	0.277	0.292	0.42	0.374	0.395	0.263	0.24	0.289
